ChEMBL document CHEMBL1201862, “PubChem BioAssay data set” (2004)
Activity calls are given as the source filed them.

Columns and labels:
Bcl-2-related protein A1 = target: T1, Bcl-2-related protein A1 (Mus musculus, UniProt Q07440); format: functional;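 also: confirmatory dose–response counterscreen on Bfl-1, used to check hits from a UBC13 polyubiquitin inhibitor campaign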
T1 sequence (Q07440 whole entry): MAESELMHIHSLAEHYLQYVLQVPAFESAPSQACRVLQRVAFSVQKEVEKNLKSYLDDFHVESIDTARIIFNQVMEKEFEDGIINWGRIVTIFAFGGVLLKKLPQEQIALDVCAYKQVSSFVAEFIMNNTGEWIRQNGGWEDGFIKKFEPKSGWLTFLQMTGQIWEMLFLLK

[1] = target: T2, Ubiquitin-conjugating enzyme E2 N (Homo sapiens, UniProt P61088); format: functional
T2 sequence (P61088 whole entry): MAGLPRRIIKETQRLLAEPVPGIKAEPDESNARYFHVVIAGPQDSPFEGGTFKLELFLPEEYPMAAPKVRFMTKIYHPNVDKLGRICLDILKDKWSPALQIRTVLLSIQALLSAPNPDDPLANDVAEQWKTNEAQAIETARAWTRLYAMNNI

[2] = target: T2, Ubiquitin-conjugating enzyme E2 N; format: functional; remark: listed apart in the source
[3] = target: Voltage-dependent T-type calcium channel subunit alpha-1H (Homo sapiens, UniProt O95180); assay: Cav3.2 T-type channel inhibitors, synthesized analogs, SAR follow-up, cell-based, synthetic library set 2, HEK293 HH8, Fluo-4 (AID 493023); format: functional
Sequence of Voltage-dependent T-type calcium channel subunit alpha-1H (O95180 whole entry): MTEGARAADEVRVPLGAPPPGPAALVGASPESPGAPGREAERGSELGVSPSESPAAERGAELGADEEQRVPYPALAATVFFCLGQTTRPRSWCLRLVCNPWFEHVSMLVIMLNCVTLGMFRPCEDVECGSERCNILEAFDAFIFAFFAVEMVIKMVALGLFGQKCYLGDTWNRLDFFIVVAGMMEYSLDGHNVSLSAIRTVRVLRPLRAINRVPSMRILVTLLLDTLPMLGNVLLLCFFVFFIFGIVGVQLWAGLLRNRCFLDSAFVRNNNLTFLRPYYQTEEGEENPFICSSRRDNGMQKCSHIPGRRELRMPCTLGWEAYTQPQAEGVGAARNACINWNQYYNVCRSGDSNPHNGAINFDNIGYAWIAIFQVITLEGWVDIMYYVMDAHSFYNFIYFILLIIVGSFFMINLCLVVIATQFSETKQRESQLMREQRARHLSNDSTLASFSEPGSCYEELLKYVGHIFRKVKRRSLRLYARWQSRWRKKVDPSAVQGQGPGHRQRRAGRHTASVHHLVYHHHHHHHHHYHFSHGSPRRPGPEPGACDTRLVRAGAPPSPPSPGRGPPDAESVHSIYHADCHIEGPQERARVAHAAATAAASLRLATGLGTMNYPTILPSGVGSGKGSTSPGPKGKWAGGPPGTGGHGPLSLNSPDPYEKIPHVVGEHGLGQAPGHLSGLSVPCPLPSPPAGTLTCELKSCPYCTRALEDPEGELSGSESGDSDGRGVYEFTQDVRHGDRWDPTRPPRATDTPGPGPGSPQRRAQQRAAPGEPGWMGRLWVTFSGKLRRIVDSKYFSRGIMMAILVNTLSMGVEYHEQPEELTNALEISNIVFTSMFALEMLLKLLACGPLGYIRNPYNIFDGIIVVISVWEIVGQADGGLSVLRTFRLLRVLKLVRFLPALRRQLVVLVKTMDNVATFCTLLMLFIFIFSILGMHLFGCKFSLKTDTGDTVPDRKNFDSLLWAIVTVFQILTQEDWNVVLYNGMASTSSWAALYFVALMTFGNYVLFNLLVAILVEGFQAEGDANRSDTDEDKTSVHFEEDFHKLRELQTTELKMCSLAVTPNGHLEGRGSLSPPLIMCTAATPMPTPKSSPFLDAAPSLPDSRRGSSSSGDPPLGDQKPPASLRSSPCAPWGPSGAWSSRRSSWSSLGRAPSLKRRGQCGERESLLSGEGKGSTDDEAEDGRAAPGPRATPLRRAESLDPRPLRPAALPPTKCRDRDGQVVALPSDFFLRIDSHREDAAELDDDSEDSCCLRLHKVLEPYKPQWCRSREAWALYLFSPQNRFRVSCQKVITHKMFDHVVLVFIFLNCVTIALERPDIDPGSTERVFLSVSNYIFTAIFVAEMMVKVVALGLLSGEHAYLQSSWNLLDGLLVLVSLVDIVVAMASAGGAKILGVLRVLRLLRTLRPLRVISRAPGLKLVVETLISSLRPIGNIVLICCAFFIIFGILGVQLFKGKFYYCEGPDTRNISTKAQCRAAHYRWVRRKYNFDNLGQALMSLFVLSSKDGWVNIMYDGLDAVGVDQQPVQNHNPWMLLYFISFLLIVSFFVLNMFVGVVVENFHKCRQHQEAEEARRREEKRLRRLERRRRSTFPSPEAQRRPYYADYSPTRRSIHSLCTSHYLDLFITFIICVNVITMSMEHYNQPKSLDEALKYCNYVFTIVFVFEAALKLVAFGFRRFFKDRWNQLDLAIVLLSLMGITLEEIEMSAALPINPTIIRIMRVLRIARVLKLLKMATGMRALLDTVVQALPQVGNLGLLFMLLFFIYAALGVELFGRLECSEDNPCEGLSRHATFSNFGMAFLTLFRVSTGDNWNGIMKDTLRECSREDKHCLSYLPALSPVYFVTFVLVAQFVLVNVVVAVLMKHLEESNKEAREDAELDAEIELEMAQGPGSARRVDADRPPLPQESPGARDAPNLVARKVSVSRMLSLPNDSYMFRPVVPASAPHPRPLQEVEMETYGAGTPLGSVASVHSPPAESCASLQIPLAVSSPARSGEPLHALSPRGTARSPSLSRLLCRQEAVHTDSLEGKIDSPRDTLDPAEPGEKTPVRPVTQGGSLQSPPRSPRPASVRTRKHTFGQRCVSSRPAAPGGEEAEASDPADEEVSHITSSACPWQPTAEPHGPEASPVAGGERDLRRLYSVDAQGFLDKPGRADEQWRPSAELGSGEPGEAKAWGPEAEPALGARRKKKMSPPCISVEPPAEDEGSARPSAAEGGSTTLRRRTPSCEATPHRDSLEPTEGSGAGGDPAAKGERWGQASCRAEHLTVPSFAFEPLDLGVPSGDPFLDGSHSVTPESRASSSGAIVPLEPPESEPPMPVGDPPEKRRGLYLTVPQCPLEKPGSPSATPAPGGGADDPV

[4] = target: T3, Dual specificity protein phosphatase 3 (Homo sapiens, UniProt P51452); assay: SAR VHR1 absorbance Assay for In Vitro dose response studies. [Related pubchem assays (depositor defined):AID1654, AID1661, AID1878, AID1992, AID2004]
T3 sequence (P51452 whole entry): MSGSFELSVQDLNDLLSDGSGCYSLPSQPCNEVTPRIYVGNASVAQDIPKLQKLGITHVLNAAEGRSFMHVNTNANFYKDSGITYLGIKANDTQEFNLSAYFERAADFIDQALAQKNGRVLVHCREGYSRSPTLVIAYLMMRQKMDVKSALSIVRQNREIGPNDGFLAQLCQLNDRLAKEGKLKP

[5] = target: T4, Dual specificity protein phosphatase 6 (Rattus norvegicus, UniProt Q64346); format: functional;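 also: confirmatory in vitro dose-response testing of MKP-3 inhibition; recombinant His-tagged MKP-3 made in E. coli BL21 with OMFP substrate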
T4 sequence (Q64346 whole entry): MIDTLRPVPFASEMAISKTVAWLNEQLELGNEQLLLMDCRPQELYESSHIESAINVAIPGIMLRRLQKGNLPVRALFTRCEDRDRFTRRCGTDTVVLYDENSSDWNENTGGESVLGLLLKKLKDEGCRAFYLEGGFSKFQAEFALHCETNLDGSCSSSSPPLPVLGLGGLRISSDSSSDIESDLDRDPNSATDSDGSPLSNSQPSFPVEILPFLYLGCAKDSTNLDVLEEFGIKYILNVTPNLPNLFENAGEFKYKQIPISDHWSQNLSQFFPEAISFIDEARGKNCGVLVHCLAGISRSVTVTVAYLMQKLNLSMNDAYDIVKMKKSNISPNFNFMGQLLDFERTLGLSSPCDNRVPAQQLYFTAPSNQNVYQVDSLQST

[6] = target: T5, Tyrosine-protein phosphatase non-receptor type 7 (Homo sapiens, UniProt P35236); assay: redox-dependent HePTP inhibition, mechanism study, biochemical, fluorescence (AID 2068); format: functional
T5 sequence (P35236 whole entry): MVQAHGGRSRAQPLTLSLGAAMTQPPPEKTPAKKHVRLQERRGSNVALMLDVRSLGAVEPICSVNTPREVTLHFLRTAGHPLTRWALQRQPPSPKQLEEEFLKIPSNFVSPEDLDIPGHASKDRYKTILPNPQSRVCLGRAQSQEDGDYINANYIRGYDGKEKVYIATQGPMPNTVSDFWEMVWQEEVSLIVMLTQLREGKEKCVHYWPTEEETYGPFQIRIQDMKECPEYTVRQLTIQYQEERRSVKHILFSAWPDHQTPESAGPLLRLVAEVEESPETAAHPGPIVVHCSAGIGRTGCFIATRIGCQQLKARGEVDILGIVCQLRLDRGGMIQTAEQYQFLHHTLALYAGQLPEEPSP

[7] = target: T6, Tyrosine-protein phosphatase non-receptor type 22 (Homo sapiens, UniProt Q9Y2R2); assay: SAR LYP1 Fluorescent Assay using OMFP substrate for In Vitro dose response studies - Set 3. [Related pubchem assays (depositor defined):AID1779, AID1784, AID2140, AID2686]; format: functional
T6 sequence (Q9Y2R2 whole entry): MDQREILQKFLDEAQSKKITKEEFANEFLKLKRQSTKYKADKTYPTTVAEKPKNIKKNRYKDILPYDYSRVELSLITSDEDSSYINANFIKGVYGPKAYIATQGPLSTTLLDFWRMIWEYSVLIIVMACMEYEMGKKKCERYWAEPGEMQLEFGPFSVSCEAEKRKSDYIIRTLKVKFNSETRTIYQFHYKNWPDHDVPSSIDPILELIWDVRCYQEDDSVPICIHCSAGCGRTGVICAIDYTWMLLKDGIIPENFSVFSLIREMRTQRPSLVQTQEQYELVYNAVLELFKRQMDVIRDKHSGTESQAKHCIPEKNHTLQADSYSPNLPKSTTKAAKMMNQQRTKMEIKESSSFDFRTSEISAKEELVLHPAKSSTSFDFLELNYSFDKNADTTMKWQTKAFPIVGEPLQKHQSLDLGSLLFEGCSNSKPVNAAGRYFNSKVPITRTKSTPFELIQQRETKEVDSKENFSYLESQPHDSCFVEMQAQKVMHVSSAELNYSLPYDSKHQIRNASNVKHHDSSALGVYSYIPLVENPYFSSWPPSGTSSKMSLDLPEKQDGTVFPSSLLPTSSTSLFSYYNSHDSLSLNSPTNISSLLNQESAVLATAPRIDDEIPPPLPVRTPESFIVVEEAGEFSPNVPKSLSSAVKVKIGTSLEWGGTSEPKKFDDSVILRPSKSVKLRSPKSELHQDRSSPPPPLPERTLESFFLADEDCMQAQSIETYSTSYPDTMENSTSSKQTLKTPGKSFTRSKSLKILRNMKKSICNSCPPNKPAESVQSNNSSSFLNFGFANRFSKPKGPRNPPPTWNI

[8] = target: Tyrosine-protein phosphatase non-receptor type 12 (Homo sapiens, UniProt Q05209); assay: SAR Selectivity Analysis of small molecule inhibitors of PEST using pCAP in a fluorescence assay. [Related pubchem assays (depositor defined):AID1779, AID1784, AID2135]; format: functional
Sequence of Tyrosine-protein phosphatase non-receptor type 12 (Q05209 whole entry): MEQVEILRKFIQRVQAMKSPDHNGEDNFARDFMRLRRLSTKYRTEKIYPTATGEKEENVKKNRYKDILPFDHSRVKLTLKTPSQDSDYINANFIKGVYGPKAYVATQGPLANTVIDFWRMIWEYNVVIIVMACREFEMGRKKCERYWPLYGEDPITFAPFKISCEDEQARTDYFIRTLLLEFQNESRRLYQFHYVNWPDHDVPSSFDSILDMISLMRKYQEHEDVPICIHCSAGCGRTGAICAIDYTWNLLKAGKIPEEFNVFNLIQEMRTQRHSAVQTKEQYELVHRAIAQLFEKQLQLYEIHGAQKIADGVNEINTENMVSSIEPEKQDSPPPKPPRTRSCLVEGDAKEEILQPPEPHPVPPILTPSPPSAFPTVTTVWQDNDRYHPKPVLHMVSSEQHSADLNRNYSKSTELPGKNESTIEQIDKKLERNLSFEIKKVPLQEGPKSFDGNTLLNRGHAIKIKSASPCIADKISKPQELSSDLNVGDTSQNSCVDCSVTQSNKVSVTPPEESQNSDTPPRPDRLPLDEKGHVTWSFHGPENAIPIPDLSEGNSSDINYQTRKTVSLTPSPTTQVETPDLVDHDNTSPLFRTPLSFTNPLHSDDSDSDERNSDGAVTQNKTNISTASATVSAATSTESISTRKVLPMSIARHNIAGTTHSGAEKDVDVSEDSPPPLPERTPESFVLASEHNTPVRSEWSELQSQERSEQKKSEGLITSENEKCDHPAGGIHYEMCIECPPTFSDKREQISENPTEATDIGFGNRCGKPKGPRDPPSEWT

[9] = target: T5, Tyrosine-protein phosphatase non-receptor type 7; assay: HePTP (PTPN7) phosphatase inhibitor potency, SAR follow-up, biochemical, set 2 (AID 449736); format: functional
[10] = target: T6, Tyrosine-protein phosphatase non-receptor type 22; assay: LYP (PTPN22) phosphatase inhibitor potency, SAR follow-up, biochemical, pCAP fluorogenic substrate, fluorescence, set 3 (AID 449727); format: functional
[11] = target: T3, Dual specificity protein phosphatase 3; assay: SAR VHR1 Fluorescent Assay for In Vitro dose response studies. [Related pubchem assays (depositor defined):AID1654, AID1661, AID1878, AID1992, AID2004, AID2070, AID2085]; format: functional
[12] = target: T7, Kappa-type opioid receptor (Homo sapiens, UniProt P41145); assay: SAR analysis of small molecule agonists of the kappa opioid receptor via a luminescent beta-arrestin assay - Set 3. [Related pubchem assays (depositor defined):AID1777, AID1785, AID1786, AID1966, AID2133, AID2136, AID2284, AID2500]; format: functional
T7 sequence (P41145 whole entry): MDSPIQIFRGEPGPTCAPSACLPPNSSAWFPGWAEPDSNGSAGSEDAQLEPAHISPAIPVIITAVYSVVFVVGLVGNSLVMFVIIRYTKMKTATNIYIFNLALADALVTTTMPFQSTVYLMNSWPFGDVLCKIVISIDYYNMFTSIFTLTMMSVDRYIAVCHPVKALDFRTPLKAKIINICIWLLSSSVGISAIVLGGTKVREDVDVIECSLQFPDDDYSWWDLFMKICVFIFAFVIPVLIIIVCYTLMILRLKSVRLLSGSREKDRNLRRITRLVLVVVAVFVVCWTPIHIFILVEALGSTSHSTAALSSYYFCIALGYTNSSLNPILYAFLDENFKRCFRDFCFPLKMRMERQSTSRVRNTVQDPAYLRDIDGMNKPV

[13] = target: T7, Kappa-type opioid receptor; assay: KOR agonist analogs, arrestin-GFP redistribution, SAR follow-up, imaging, image-based, set 3 (AID 488833); format: functional
Mu-type opioid receptor = Mu-type opioid receptor (Homo sapiens, UniProt P35372); assay: SAR Analysis of Agonists of the MOR Receptor using an Image-Based Assay - Set 3. [Related pubchem assays (depositor defined):AID1777, AID1785, AID1786, AID1966, AID2133, AID2136, AID2284, AID2285, AID2352]; format: functional
Sequence of Mu-type opioid receptor (P35372 whole entry): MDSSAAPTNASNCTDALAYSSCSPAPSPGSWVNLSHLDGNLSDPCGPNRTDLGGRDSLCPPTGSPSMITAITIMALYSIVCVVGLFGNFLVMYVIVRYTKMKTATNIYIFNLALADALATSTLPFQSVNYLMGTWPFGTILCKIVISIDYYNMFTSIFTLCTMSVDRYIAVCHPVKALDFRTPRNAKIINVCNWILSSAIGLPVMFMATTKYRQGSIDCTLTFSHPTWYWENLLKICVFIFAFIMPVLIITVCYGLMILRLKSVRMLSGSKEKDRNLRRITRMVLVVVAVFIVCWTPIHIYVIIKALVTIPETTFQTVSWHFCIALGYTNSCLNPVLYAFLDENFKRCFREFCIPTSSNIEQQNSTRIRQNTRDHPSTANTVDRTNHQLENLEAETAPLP

[14] = target: Delta-type opioid receptor (Homo sapiens, UniProt P41143); assay: SAR Analysis of Agonists of the DOR Receptor using an Image-Based Assay - Set 3. [Related pubchem assays (depositor defined):AID1777, AID1786]; format: functional
Sequence of Delta-type opioid receptor (P41143 whole entry): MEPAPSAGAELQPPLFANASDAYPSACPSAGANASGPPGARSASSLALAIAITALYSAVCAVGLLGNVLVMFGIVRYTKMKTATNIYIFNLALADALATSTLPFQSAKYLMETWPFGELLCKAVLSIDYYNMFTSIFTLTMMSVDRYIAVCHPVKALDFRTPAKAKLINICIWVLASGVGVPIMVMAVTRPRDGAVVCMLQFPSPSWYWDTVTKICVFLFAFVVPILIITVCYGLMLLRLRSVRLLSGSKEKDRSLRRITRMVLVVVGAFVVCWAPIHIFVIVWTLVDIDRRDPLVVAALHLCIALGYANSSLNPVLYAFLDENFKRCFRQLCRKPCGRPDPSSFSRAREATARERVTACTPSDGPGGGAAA

[15] = target: T8, Replicative DNA helicase DnaB (Mycobacterium tuberculosis, UniProt P9WMR3); assay: DnaB intein splicing inhibitors, dose response, biochemical, cell-free fluorescence (AID 449749); format: functional
T8 sequence (P9WMR3 whole entry): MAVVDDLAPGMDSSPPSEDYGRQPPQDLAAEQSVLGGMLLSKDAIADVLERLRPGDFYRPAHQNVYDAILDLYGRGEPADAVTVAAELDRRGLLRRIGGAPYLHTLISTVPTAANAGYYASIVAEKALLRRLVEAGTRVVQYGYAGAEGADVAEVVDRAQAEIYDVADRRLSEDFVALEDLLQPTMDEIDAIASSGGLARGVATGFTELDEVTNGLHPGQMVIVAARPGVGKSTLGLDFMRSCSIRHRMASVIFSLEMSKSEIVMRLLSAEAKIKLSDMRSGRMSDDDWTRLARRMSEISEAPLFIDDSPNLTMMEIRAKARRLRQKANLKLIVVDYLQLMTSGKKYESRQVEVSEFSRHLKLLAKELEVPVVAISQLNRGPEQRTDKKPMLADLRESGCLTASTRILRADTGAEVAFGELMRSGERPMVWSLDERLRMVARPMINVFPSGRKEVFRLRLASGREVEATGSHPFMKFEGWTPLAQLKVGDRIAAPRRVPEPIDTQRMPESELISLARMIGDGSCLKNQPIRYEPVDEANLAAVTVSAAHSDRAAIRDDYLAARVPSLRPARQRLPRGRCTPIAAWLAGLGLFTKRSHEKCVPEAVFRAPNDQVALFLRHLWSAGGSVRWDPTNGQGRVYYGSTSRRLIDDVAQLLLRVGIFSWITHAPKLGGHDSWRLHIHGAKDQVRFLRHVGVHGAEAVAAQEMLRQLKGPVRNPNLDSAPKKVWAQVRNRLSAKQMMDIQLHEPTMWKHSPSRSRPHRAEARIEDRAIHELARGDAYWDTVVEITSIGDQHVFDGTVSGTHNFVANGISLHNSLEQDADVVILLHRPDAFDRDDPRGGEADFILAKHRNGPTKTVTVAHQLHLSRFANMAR

Protein RecA [16] = target: T9, Protein RecA (Mycobacterium tuberculosis, UniProt P9WHJ3); assay: Fluorescence Cell-Free Homogeneous Dose Retest to Identify Inhibitors of RecA-Intein Splicing Activity. [Related pubchem assays (depositor defined):AID2097, AID2223, AID489010, AID492950]; format: functional
T9 sequence (P9WHJ3 whole entry): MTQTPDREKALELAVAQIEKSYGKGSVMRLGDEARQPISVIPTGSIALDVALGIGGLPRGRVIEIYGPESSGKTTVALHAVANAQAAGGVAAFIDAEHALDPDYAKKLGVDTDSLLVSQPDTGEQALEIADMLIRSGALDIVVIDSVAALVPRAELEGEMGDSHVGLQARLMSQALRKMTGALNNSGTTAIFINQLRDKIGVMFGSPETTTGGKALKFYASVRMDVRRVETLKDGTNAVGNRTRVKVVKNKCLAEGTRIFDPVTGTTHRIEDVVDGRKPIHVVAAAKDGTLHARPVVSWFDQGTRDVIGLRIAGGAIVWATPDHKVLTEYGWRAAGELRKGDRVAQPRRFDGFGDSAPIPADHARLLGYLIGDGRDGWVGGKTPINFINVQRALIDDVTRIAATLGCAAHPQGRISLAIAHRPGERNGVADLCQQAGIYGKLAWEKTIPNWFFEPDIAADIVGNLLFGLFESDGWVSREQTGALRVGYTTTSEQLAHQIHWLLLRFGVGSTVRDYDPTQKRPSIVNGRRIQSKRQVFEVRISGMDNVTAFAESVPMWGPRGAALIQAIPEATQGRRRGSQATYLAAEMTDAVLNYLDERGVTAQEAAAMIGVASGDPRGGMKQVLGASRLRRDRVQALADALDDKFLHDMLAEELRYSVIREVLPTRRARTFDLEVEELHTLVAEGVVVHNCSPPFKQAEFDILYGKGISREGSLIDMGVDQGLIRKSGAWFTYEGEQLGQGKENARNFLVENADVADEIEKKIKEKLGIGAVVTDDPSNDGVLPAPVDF

[17] = target: T8, Replicative DNA helicase DnaB; assay: DnaB Intein secondary assay Measured in Biochemical System Using Plate Reader - 2047-04_Inhibitor_Dose_DryPowder_Activity. [Related pubchem assays (depositor defined):AID2223]
Protein RecA [18] = target: T9, Protein RecA; assay: RecA Intein Measured in Biochemical System Using Plate Reader - 2047-02_Inhibitor_Dose_DryPowder_Activity. [Related pubchem assays (depositor defined):AID2223]; parameters: species or system Mycobacterium tuberculosis H37Rv
[19] = GFP fluorescence signal inhibitors, dose response, artefact control, biochemical, plate reader, dry powder (AID 493243)
cells = format: functional

NC(=O)c1ccc(Cn2c(C(=O)c3cc(Cl)c(N)c(Cl)c3)c3ccccc3[n+]2[O-])cc1
IC50 (Bcl-2-related protein A1): > 20 µM (inactive) | IC50 [1]: > 20 µM (inactive) | IC50 [2]: 10.8 µM (active)

O=C(COc1ccccc1Cl)N[C@@H]1CCCN(Cc2ccccc2)C1
EC50 [3]: 10 µM (active)

Cc1cc(OCC(=O)O)ccc1[S+](C)[O-] (configuration not stated)
IC50 [4]: > 100 µM (inactive) | IC50 [5]: > 99 µM (inactive) | IC50 [6]: > 100 µM (inactive) | IC50 [7]: > 100 µM (inactive) | IC50 [8]: > 100 µM (inactive) | IC50 [9]: > 100 µM (inactive) | IC50 [10]: > 100 µM (inactive) | IC50 [11]: > 99 µM (inactive)

CC(=O)Oc1ccc(CSc2nnc(-c3ccccn3)n2Cc2cccs2)cc1
EC50 [12]: > 20 µM (inactive) | EC50 [13]: > 32 µM (inactive) | EC50 (Mu-type opioid receptor): > 32 µM (inactive) | EC50 [14]: > 32 µM (inactive)

C/C(=N\NC(=O)c1ccncc1)c1cc2ccccc2oc1=O
AC50 [15]: 2.77 µM (active) | EC50 (Protein RecA [16]): 2.86 µM (active) | AC50 [17]: 36.9 µM (active) | AC50 (Protein RecA [18]): 3.08 µM (active) | AC50 [19]: 218 µM (active) | IC50 (cells): 0.55 µM (active)
